One assay addresses T1, EZH1/SUZ/EED (Homo sapiens, UniProt O75530+Q15022+Q92800).
T1 construct: purchased BPS 51006
The assay is described as follows: Inhibitory effect on EZH1 by the MTase-Glo method (Test Example 1). Conditions: EZH1/SUZ/EED 25 nM, H3 peptide 10 μM, SAM 3 μM, 30° C. 3 h, read-out: Test Example 1 WT EZH1 IC50. Format: biochemical. As to the method: (§1) The compound was dissolved in DMSO, and the compound was serially diluted using ECHO665 and transferred to a 384-well reaction plate (Corning, 3824). A sample containing only DMSO was added as a positive control (maximum signal control) and a negative control (minimum signal control), while ensuring that the final DMSO content in each reaction well was 0.5%. The protein was configured in reaction buffer (50 mM Bicine, 0.01% Triton X-100, 1 mM DTT, 0.01% BSA, pH 7.6), such that the final reaction concentrations of EZH2/SUZ/EED (BPS, 51003) protein solution and EZH1/SUZ/EED (BPS, 51006) were 6.25 nM and 25 nM, respectively. The negative control (minimum signal control) used an equal amount of buffer instead of protein solution. The prepared protein solution was added to the 384-well reaction plate and pre-incubated at room temperature for 15 minutes. The mixture of the substrate H3 peptide fragment (custom-synthesized by GenScript, biotinylated Histone H3(21-44) peptide ([…]-GG-K(Biotin)-OH)) prepared in the reaction buffer and SAM (Promega, V7601) was added into the 384-well plate, such that the final reaction concentration of H3 peptide fragment was 10 μM, and the final concentration of SAM was 3 μM. The mixture was centrifuged at 1000 rpm for 1 min. The 384-well reaction plate was placed in a constant temperature shaker and incubate at 30° C. for 3 h at a speed of 300 rpm. Then the detection reagent was added according to the experimental process of the kit MTase-Glo (Promega, V7601) and incubated.
(§2) After incubation, read with BMG PHERAStar. The luminescence signals obtained by positive control (maximum signal control) and negative control (minimum signal control) were normalized to obtain the inhibition rate of different concentrations of compounds. Then, the IC50 of the compound on the enzyme activity inhibition was calculated by GraphPad Prism 6 with log(inhibitor) vs. response-Variable slope model fitting. The fitting equation is: Y=Bottom+(Top−Bottom)/(1+10^((Log IC50−X)*HillSlope)), wherein Y represents the known percentage remaining enzyme activity, and X represents the known activity after Log compound concentration.

Another assay deals with T2, EZH2/SUZ/EED (Homo sapiens, UniProt O75530+Q15022+Q15910).
T2 construct: purchased BPS 51003
The assay is described as follows: Inhibitory effect on EZH2 by the MTase-Glo method (Test Example 1). It is filed as biochemical. The conditions noted are these: EZH2/SUZ/EED 6.25 nM, H3 peptide 10 μM, SAM 3 μM, 30° C. 3 h, read-out: Test Example 1 WT EZH2 IC50. Here is the method:
as §1, §2

Some results are limits rather than exact numbers.

T2 sequence (Q15910 2-746 limits assumed): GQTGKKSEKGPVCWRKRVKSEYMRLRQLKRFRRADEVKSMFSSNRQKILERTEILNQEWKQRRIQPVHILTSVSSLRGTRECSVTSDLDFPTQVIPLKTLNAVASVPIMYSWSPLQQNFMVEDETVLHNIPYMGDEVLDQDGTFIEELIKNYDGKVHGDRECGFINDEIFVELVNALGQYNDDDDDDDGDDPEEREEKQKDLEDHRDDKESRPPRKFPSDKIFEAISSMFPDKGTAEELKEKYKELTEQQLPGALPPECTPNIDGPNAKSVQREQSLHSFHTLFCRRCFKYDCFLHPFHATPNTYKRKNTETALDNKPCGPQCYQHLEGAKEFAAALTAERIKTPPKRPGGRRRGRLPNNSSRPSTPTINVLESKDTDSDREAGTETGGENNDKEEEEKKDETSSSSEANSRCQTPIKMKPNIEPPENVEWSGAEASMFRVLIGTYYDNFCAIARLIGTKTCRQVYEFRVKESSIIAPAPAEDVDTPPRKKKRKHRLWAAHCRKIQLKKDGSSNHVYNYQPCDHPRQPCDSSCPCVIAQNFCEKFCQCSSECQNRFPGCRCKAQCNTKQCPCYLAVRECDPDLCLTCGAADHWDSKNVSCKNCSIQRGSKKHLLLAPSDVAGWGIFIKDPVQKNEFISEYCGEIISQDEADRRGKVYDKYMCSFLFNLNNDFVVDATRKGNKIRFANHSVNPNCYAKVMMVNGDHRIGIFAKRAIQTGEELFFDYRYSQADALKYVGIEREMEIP
T2 sequence (Q15022 2-739 partner limits assumed): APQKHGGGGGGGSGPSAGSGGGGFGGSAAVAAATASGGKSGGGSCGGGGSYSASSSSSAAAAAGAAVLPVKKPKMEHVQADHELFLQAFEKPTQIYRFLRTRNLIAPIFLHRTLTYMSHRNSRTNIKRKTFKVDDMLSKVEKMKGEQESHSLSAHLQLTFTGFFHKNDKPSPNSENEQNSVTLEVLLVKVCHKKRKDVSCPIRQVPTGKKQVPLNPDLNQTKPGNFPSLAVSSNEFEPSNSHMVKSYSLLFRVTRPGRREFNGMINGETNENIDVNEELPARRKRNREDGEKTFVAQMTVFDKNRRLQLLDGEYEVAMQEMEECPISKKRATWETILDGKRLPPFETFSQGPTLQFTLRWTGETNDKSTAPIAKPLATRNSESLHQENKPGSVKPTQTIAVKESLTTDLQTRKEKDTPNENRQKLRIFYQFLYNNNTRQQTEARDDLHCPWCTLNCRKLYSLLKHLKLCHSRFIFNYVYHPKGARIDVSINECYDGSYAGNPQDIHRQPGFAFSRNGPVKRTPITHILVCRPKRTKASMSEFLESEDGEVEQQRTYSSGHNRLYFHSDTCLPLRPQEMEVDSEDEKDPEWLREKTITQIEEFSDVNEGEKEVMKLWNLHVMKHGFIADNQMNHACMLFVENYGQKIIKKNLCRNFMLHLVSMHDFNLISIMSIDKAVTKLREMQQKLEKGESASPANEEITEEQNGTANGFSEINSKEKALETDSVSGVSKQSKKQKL
T2 sequence (O75530 2-441 partner limits assumed): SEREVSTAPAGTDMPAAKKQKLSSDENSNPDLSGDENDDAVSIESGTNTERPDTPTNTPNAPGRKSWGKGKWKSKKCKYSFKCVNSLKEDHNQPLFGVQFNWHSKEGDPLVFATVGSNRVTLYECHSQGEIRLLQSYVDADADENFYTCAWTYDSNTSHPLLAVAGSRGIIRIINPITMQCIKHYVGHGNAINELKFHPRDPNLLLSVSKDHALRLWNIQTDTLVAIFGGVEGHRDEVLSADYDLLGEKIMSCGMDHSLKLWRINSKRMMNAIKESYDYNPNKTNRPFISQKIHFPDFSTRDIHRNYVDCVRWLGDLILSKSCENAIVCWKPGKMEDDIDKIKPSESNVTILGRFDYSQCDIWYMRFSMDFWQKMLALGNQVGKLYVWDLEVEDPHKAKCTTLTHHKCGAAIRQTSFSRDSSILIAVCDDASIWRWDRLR
T1 sequence (Q92800 2-747 limits assumed): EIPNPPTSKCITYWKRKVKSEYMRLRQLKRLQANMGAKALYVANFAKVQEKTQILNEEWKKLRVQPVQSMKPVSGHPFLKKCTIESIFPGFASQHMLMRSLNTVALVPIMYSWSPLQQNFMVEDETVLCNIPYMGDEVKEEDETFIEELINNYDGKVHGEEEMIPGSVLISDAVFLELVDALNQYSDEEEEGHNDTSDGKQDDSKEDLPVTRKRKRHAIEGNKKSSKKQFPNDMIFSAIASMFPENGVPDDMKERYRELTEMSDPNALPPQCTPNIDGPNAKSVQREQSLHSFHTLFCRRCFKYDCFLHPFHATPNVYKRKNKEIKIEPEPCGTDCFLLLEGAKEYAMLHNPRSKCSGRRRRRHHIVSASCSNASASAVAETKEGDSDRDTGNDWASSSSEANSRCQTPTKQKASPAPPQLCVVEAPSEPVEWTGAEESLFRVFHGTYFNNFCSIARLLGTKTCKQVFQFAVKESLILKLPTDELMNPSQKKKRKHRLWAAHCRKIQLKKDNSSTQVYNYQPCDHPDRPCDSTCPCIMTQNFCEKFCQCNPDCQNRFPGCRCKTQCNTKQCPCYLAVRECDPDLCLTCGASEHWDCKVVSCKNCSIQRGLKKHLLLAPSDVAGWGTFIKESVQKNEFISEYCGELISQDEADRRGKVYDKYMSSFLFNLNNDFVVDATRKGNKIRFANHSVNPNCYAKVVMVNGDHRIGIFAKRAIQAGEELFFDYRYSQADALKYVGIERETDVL
T1 sequence (Q15022 2-739 partner limits assumed): as the sequence (Q15022 2-739 partner limits assumed) above
T1 sequence (O75530 2-441 partner limits assumed): as the sequence (O75530 2-441 partner limits assumed) above

Regarding `COCCOC1CN([C@H]2CC[C@H]([C@H]3COc4c(Cl)cc(C(=O)NCc5c(OC)cc(C)[nH]c5=O)c(C)c4O3)CC2)C1` [Compound 102], the IC50 on EZH1/SUZ/EED was 655 nM; at EZH2/SUZ/EED, 2.6 nM.

`Cc1cc(C)c(CNC(=O)c2cc(Cl)c3c(c2C)O[C@H](C2CCN(CC4COC4)CC2)CO3)c(=O)[nH]1` [Compound 87]: at EZH2/SUZ/EED, the IC50 was determined as 780 nM.

As for `COCCN(C)[C@H]1CC[C@H]([C@H]2COc3c(Cl)cc(C(=O)NCc4c(OC)cc(C)[nH]c4=O)c(C)c3O2)CC1` [Compound 108], the IC50 amounted to 69.3 nM at EZH1/SUZ/EED and 5 nM at EZH2/SUZ/EED.

Take `COC1(C(F)(F)F)CN(C2CCC(C3COc4c(Cl)cc(C(=O)NCc5c(C)cc(C)[nH]c5=O)c(C)c4O3)CC2)C1` (single isomer, unassigned) [Compound 69]: the IC50 amounted to 879 nM on EZH1/SUZ/EED and 84.6 nM at EZH2/SUZ/EED.

As for `Cc1cc(C)c(CNC(=O)c2cc(Cl)c3c(c2C)O[C@H](C2CCN(C4COC4)CC2)CO3)c(=O)[nH]1` [Compound 89], on EZH2/SUZ/EED, the IC50 is 1840 nM.

In the case of `Cc1cc(C)c(CNC(=O)c2cc(Cl)c3c(c2Cl)O[C@H]([C@H]2CC[C@@H](N(C)C)CC2)CO3)c(=O)[nH]1` [Compound 142], the IC50 at EZH1/SUZ/EED was 7610 nM; on EZH2/SUZ/EED it was 1160 nM.

With `COC1C2CN([C@H]3CC[C@H]([C@H]4COc5c(Cl)cc(C(=O)NCc6c(SC)cc(C)[nH]c6=O)c(C)c5O4)CC3)CC21` (some centres unmarked) [Compound 44], the 50% inhibitory concentration (IC50) on EZH1/SUZ/EED turned out to be 13.5 nM.

With `Cc1cc(C)c(CNC(=O)c2cc(Cl)c3c(c2C)OC(C2CCN(C)CC2)CO3)c(=O)[nH]1` (centres unmarked) [Compound 1], the values for the IC50 at EZH1/SUZ/EED and on EZH2/SUZ/EED were 1300 nM and 27.5 nM, respectively.

As for `[2H]C([2H])([2H])Sc1cc(C)[nH]c(=O)c1CNC(=O)c1cc(Cl)c2c(c1C)O[C@@H](C1CCC(N3CC(OC)C3)CC1)CO2` (some centres unmarked) [Compound 177], the half-inhibitory concentration (IC50) at EZH1/SUZ/EED was found to be 2.3 nM; on EZH2/SUZ/EED, 1.5 nM.

Consider `COC1CN([C@H]2CC[C@H]([C@H]3COc4c(C#N)cc(C(=O)NCc5c(SC)cc(C)[nH]c5=O)c(C)c4O3)CC2)C1` [Compound 154], for which the figures for the IC50 on EZH1/SUZ/EED and on EZH2/SUZ/EED were 30 nM and 4.2 nM, respectively.

As for `Cc1cc(C)c(CNC(=O)c2cc(Cl)c3c(c2C)OC(C2CCN(C4COC4)CC2)CO3)c(=O)[nH]1` (centres unmarked) [Compound 84], the concentration for half-maximal inhibition (IC50) at EZH2/SUZ/EED was determined as 11 nM.

Consider `COc1cc(C)[nH]c(=O)c1CNC(=O)c1cc(Cl)c2c(c1C)O[C@@H]([C@H]1CC[C@H](N3CC4(CC4)C3)CC1)CO2` [Compound 112], for which the IC50 at EZH1/SUZ/EED is 49.9 nM.

Regarding `Cc1cc(C)c(CNC(=O)c2cc(Cl)c3c(c2C)OC(C2CCN(C(C)C)CC2)CO3)c(=O)[nH]1` (centres unmarked) [Compound 82], the concentration for half-maximal inhibition (IC50) on EZH2/SUZ/EED came out at 85.1 nM.

As for `CSc1cc(C)[nH]c(=O)c1CNC(=O)c1cc(Cl)c2c(c1C)O[C@H]([C@H]1CC[C@@H](N3CC(OC4CC4)C3)CC1)CO2` [Compound 13], at EZH2/SUZ/EED, the IC50 was 17.7 nM.

In the case of `Cc1cc(C)c(CNC(=O)c2cc(Cl)c3c(c2Cl)O[C@@H]([C@H]2CC[C@H](N(C)C)CC2)CO3)c(=O)[nH]1` [Compound 144], the IC50 on EZH1/SUZ/EED turned out to be 769 nM; at EZH2/SUZ/EED, 15.6 nM.

On to `Cc1cc(C)c(CNC(=O)c2cc(Cl)c3c(c2C)O[C@H]([C@H]2CC[C@H](N4CC5COCC5C4)CC2)CO3)c(=O)[nH]1` (some centres unmarked) [Compound 72], for which the IC50 is over 10000 nM on EZH1/SUZ/EED and 1250 nM at EZH2/SUZ/EED.

With `COc1c(Cl)c2c(c(C)c1C(=O)NCc1c(C)cc(C)[nH]c1=O)O[C@@H](C1CCC(N(C)C)CC1)CO2` (mixture of isomers) [Compound 133], the IC50 at EZH1/SUZ/EED turned out to be 584 nM; at EZH2/SUZ/EED it was 16.6 nM.

As to `Cc1cc(C)c(CNC(=O)c2cc(Cl)c3c(c2Cl)OC[C@@H]([C@H]2CC[C@H](N(C)C)CC2)O3)c(=O)[nH]1` [Compound 148], the values for the IC50 at EZH1/SUZ/EED and at EZH2/SUZ/EED were 2830 nM and 67.1 nM, respectively.

In the case of `Cc1cc(C)c(CNC(=O)c2ccc3c(c2C)COC(C)(C2CCC(N(C)C)CC2)O3)c(=O)[nH]1` (centres unmarked) [Compound 4], the IC50 on EZH2/SUZ/EED came to 7210 nM.

Turning to `COc1cc(C)[nH]c(=O)c1CNC(=O)c1cc(Cl)c2c(c1C)O[C@@H]([C@H]1CC[C@@H](N3CC4(CC4)C3)CC1)CO2` [Compound 111], the IC50 on EZH1/SUZ/EED was determined as 27.3 nM; on EZH2/SUZ/EED it was 13.4 nM.

As for `COc1cc(C)[nH]c(=O)c1CN(C)C(=O)c1cc(Cl)c2c(c1C)O[C@@H]([C@H]1CC[C@@H](N(C)C)CC1)CO2` [Compound 129], the IC50 on EZH2/SUZ/EED was determined as 3.9 nM.

In the case of `CSc1cc(C)[nH]c(=O)c1CNC(=O)c1cc(C#N)c2c(c1C)O[C@@H]([C@H]1CC[C@H](N3CC(OCCF)C3)CC1)CO2` [Compound 162], the IC50 on EZH1/SUZ/EED worked out at 29.3 nM.

As for `COc1cc(C)[nH]c(=O)c1CNC(=O)c1cc(Cl)c2c(c1C)O[C@@H]([C@H]1CC[C@@H](N3CC4COCC4C3)CC1)CO2` (some centres unmarked) [Compound 95], the values for the IC50 at EZH1/SUZ/EED and at EZH2/SUZ/EED were 227 nM and 11.6 nM, respectively.

Regarding `Cc1cc(C)c(CNC(=O)c2cc(Cl)c3c(c2C)OC(C2CCN(CC4COC4)CC2)CO3)c(=O)[nH]1` (centres unmarked) [Compound 83], the IC50 on EZH2/SUZ/EED came to 8.2 nM.

As for `CON(C)C1CCC(C2COc3c(Cl)cc(C(=O)NCc4c(C)cc(C)[nH]c4=O)c(C)c3O2)CC1` (single isomer, unassigned) [Compound 79], on EZH2/SUZ/EED, the IC50 was determined as 2 nM.

With `CSc1cc(C)[nH]c(=O)c1CNC(=O)c1cc(C#N)c2c(c1C)O[C@@H]([C@H]1CC[C@H](N3CC(OC4CC4)C3)CC1)CO2` [Compound 160], at EZH1/SUZ/EED, the 50% inhibitory concentration (IC50) came to 31.6 nM.

Turning to `CSc1cc(C)[nH]c(=O)c1CNC(=O)c1cc(Cl)c2c(c1C)O[C@@H]([C@H]1CC[C@H](N3CC(OC4CC4)C3)CC1)CO2` [Compound 10], the IC50 on EZH2/SUZ/EED amounted to 158 nM.

Consider `COc1cc(C)[nH]c(=O)c1CNC(=O)c1cc(Cl)c2c(c1C)O[C@H]([C@H]1CC[C@@H](N3CC(OC)C3)CC1)CO2` [Compound 100], for which the IC50 at EZH2/SUZ/EED stood at 128 nM.

Consider `Cc1cc(C)c(CN(C)C(=O)c2cc(Cl)c3c(c2C)O[C@@H]([C@H]2CC[C@@H](N(C)C)CC2)CO3)c(=O)[nH]1` [Compound 127], for which the IC50 on EZH2/SUZ/EED came out at 25.5 nM.

As for `COc1cc(C)[nH]c(=O)c1CNC(=O)c1cc(Cl)c2c(c1Cl)O[C@@H]([C@H]1CC[C@H](N3CC(OC)C3)CC1)CO2` [Compound 152], the IC50 on EZH1/SUZ/EED worked out at 126 nM.

In the case of `Cc1cc(C2CC2)c(CNC(=O)c2cc(Cl)c3c(c2C)O[C@@H]([C@H]2CC[C@H](N(C)C)CC2)CO3)c(=O)[nH]1` [Compound 158], the IC50 at EZH1/SUZ/EED was 3440 nM.

Take `COc1cc(C)[nH]c(=O)c1CNC(=O)c1cc(Cl)c2c(c1C)O[C@H]([C@H]1CC[C@H](N3CC(OC)C3)CC1)CO2` [Compound 99]: the IC50 on EZH2/SUZ/EED was 93.4 nM.

`Cc1cc(C2CC2)c(CNC(=O)c2cc(Cl)c3c(c2C)O[C@@H]([C@H]2CC[C@@H](N(C)C)CC2)CO3)c(=O)[nH]1` [Compound 157]: on EZH1/SUZ/EED, the IC50 is 190 nM.

Regarding `[2H]C([2H])([2H])Sc1cc(C)[nH]c(=O)c1CNC(=O)c1cc(Cl)c2c(c1C)O[C@@H](C1CCC(N3CC(OC)C3)CC1)CO2` (some centres unmarked) [Compound 178], the IC50 at EZH1/SUZ/EED was found to be 17.5 nM.

In the case of `COc1cc(C)[nH]c(=O)c1CNC(=O)c1cc(Cl)c2c(c1C)O[C@@H]([C@H]1CC[C@H](N3CC4CC4C3)CC1)CO2` (some centres unmarked) [Compound 114], the IC50 at EZH1/SUZ/EED is 267 nM.

With `COc1cc(C)[nH]c(=O)c1CNC(=O)c1cc(Cl)c2c(c1C)O[C@@H]([C@H]1CC[C@H](N3CC4C(C3)C4OC)CC1)CO2` (some centres unmarked) [Compound 116], on EZH1/SUZ/EED, the IC50 turned out to be 156 nM.

Turning to `COc1cc(C)[nH]c(=O)c1CNC(=O)c1cc(Cl)c2c(c1C)O[C@@H](C1CCC(OCCF)CC1)CO2` (some centres unmarked) [Compound 123], the IC50 on EZH1/SUZ/EED was 84 nM.
